The assay concerns U251 malignant glioma cells. As to the kind of experiment: H-FIRE ablation (lesion) area in collagen scaffolds, live/dead stain 24 hr after treatment. It is filed as cell-based. The conditions noted are these: for increase of ablation area compared to NaCl control: 1 mM; for increase of ablation area compared to NaCl control / increase in ablation area compared to NaCl control: H-FIRE 800 V, 80 bursts. How it is done:
U251 malignant glioma cells (Sigma Aldrich, 09063001) were maintained at 5% CO2 and 37° C. in Eagle's Minimum Essential Medium (Sigma Aldrich) supplemented with 1% penicillin/streptomycin (Life Technologies), 10% fetal bovine serum (Atlanta Biologicals), 1% non-essential amino acids (Sigma Aldrich) and 1 mM sodium pyruvate (Sigma Aldrich). Cells were routinely passaged at 80-90% confluence. […] PDMS wells were treated with 1% PEI (Acros Organics) for 10 min, 0.1% glutaraldehyde (Fisher Scientific) for 20 min, and then washed twice with deionized water prior to collagen seeding to ensure collagen adhesion during treatment. Commercial rat tail collagen type I (BD Biosciences) was neutralized using a solution of 10× Dulbecco's Modified Eagle Medium (10% total volume, Sigma Aldrich), 1 N NaOH (2% collagen volume, Sigma Aldrich), and 1× Dulbecco's Modified Eagle Medium (Sigma Aldrich) to a final concentration of 5 mg/mL. […] The collagen/cell solution was dispensed into PDMS wells and PDMS tops were used to mold the collagen flat while they polymerized in a cell culture incubator for 20 min. PDMS tops were then removed and cell culture media was added. Collagen scaffolds were maintained in the incubator for 24 hr prior to treatment. […] All solutions consisted of the same base ingredients: 250 mM sucrose, 1 mM MgCl2, and 10 mM HEPES buffer in deionized water with a pH in the range of 7.2-7.4. […] Cell culture media contains things such as serum and antibiotics that may affect results. Finally, fresh solutions were added immediately prior to pulsing. All solutions were adjusted to have a pH between 7.2-7.4. The osmolarity and conductivity of the buffers used are shown in Table 1: In this example, two hollow, stainless-steel needle electrodes (Howard electronics) were inserted into the scaffolds using a custom designed electrode housing. […] H-FIRE pulses were delivered using a high-voltage pulse generator (EPULSUS®-FBM1-5, EnergyPulse Systems, Lda). Voltage waveforms were captured using a high voltage probe and oscilloscope (DPO 2012, Tektronix). […] The pulses delivered were bipolar pulses having a positive pulse duration, inter-pulse delay, and negative pulse duration (see, e.g., FIG. 1B). Inter-pulse delay was kept constant (1 μs) while pulse width was varied (1, 2, 5, 10 μs). […] For reversible threshold experiments, scaffolds were imaged immediately after treatment. To visualize ablations, a live/dead stain was performed to visualize live and dead regions of cells in the scaffold. […] Scaffolds were then washed 2× with PBS prior to imaging using an inverted microscope (DMI 6000B, Leica Microsystems) with a 5× objective. Lesion areas were quantified for each treatment using a MATLAB algorithm. Since 24 h post treatment is sufficient to allow any reversibly electroporated cells to recover (as pore resealing happens on the order of minutes), staining the cells immediately after treatment and 24 h later allows for quantification of both the reversible zone of electroporation and irreversible zones of ablation. […] Scaffolds were then washed twice with PBS prior to imaging using an inverted microscope (DMI 6000B, Leica Microsystems) with a 5× objective, filter cubes, and an EM-CCD camera (Hamamatsu C9100). The appropriate filters were used to image Calcein AM (Ex:460-500, DC: 505, EM: 570-640) and propidium iodide (EX:545/26, DC:565, EM:605/70). […] Scaffolds were then imaged immediately after treatment. […] Reversible electroporation experiments were repeated at least six times. Discrepancies in the number of replicates between conditions were due to bubbles or other defects that may have changed the electric field distribution or prohibited a reliable measurement of ablation area. These scaffolds were excluded from analysis. Two-way ANOVA was used to test for differences in cell death area due to the different applied solutions and pulse waveforms. Tukey post-hoc comparisons were used to examine differences among treatment groups. […]

In the case of `[Ca+2].[Cl-].[Cl-]` [CaCl2, calcium chloride], the “increase of ablation area compared to NaCl control” value (from here on “increase of ablation area”) (1-1-1 waveform) is reported as around 2.3 ×, the “increase of ablation area” value (2-1-2 waveform) worked out at 4.4 ×, the “increase of ablation area” value (5-1-5 waveform) was found to be 6.1 × and the “increase of ablation area” value (10-1-10 waveform) was 3.42 ×. Besides, the “increase in ablation area compared to NaCl control” value by setting is: (5 mM, 1-1-1 waveform) 3.4 ×; (5 mM, 2-1-2 waveform) 4.37 ×; (5 mM, 5-1-5 waveform) 5.24 ×; (5 mM, 10-1-10 waveform) 2.66 ×. Also, the “lesion size compared with an IRE treatment without calcium” value (5 mM, same applied energy, 2, 5 and 10 μs pulse widths) is listed as “comparable in size or larger”. Besides, the “ablation (lesion) sizes, calcium groups versus NaCl groups” value (H-FIRE, all pulse patterns) is given as “statistically significantly larger”. For the same molecule, under “after 24 h, shorter pulse durations”, the “5 mM CaCl2 areas versus 1 mM CaCl2 areas” value was “larger”.

These data come from patent US20210052882A1, “ENHANCED TREATMENT VOLUME AND SELECTIVE ABLATION USING ELECTROPORATION WITH ADJUVANT CALCIUM” (Virginia Tech Intellectual Properties, Inc., priority 2019, published 2021).
